Read-outs that look alike come from different tables or passages of the source.
Experiments:
[1] = test system: SH-SY5Y cells; test: CCK-8 cell viability assay, SH-SY5Y; type: cell-based
Procedure: (§1) BV-2 and SH-SY5Y cells were seeded in a 96-well plate at a density of 1 × 10^4 cells/well. Twenty-4 hours later, different concentrations of TJ-5 (0, 1, 5, 10, 20, and 30 μM) were added and co-cultured with cells for 24 h. Cell Counting Kit-8 (CCK8, Sigma, Shanghai, China) was used to measure cell viability. Experiments were conducted according to the manufacturer’s instructions. After incubation at 37°C for 2 h, absorbance was measured at 450 nm using a microplate reader (Synergy 2, BioTek Instruments, United States).

[2] = test system: CIRI mice; test: RT-qPCR and ELISA of inflammatory factors in the brain of CIRI mice; type: in vivo, C57BL/6 mice; details: TJ-5 15 mg/kg i.v. after 1 h ischemia
Procedure: Total mRNA was extracted from the brain cortex using TRIzol reagent and reverse-transcribed into cDNA using the PrimeScript™ RT reagent kit (Takara, Japan), following the manufacturer’s instructions. RT-qPCR was performed using SYBR Green Real-time PCR Master Mix (Takara, Japan) with the Step One System (Life Technologies). The results were expressed as fold change from the untreated control and analyzed using the 2^−ΔΔCt method. The primers were as follows (5′–3′): MyD88 forward: TTTATCTGCTACTGCCCCAACG, reverse: GCGGCGACACCTTTTCTCA; TLR4 forward: ATGCTGCAACTGATGTTCCTTC, reverse: GATGTTAGACCTTTCTTCCTCCC; GAPDH forward: TGTTCCTACCCCCAATGTGTCC, reverse: GGAGTTGCTGTTGAAGTCGCAG; TNF-α forward: ATGGCCTCCCTCTCATCAGT, reverse: TGGTTTGCTACGACGTGGG; IL-6 forward: AGTGGCTAAGGACCAAGAC, reverse: ATAACGCACTAGGTTTGCCGA; iNOS forward: ATTCACAGCTCATCCGGTACG, reverse: GGATCTTGACCATCAGCTTGC; IL-1β forward: GCACTACAGGCTCCGAGATGAA, reverse: GTCGTTGCTTGGTTCTCCTTGT.
Enzyme-linked immunosorbent assay (ELISA) kits were used to detect the levels of TNF-α, IL-1β, and IL-6 in the brain. Brain tissue was homogenized in 1 ml of phosphate-buffered saline using a tissue homogenizer. […] BV-2 cells were incubated with different treatments and the supernatants were collected and measured.

[3] = test system: BV-2 cells; test: CCK-8 cell viability assay, BV-2; type: cell-based; details: concentrations below 20 μM, 24 h
Procedure: as §1

[4] = test system: LPS-stimulated BV-2 cells; test: LPS-stimulated BV-2 cell model: morphology and TNF-α/IL-6 ELISA; type: cell-based
Procedure: BV-2 microglial and SH-SY5Y cells were cultured as previously described ([Zhao et al., 2020]). A lipopolysaccharide (LPS)-stimulated BV-2 cell model was established to mimic severe neuroinflammation induced by multiple inflammatory mediators after reperfusion ([Li et al., 2021]). BV-2 cells were pretreated with different concentrations of TJ-5 for 2 h before LPS (1 μg/ml) stimulation (#L2880, Sigma, United States). Twenty-4 hours later, BV-2 cells and the culture supernatants were harvested for subsequent experiments. In addition, ST2825, a recognized MyD88 inhibitor, was used as positive control group.
(§2) Enzyme-linked immunosorbent assay (ELISA) kits were used to detect the levels of TNF-α, IL-1β, and IL-6 in the brain. Brain tissue was homogenized in 1 ml of phosphate-buffered saline using a tissue homogenizer. Then, the homogenates were centrifuged at 14,000 g for 10 min at 4 °C. The supernatant was immediately transferred for measurement following the manufacturer’s instructions. BV-2 cells were incubated with different treatments and the supernatants were collected and measured.

[5] = test system: OGD/R-stimulated BV-2 cells; test: OGD/R-stimulated BV-2 cells: TNF-α/IL-6 ELISA; type: cell-based
Procedure: as §2

[6] = Drug concentration in serum and tissues by LC-MS, pharmacokinetics and BBB permeability; type: in vivo, mice; details: for concentration in CL brain: contralateral non-ischemic hemisphere; for concentration in CL brain / AUC(0-t) / concentration at 5 min / concentration at 10 min / concentration at 30 min / concentration at 1 h / concentration at 2 h / concentration at 6 h: mean ± SD; for Kp / half-life / AUC(0-t) / concentration at 5 min / concentration at 10 min / concentration at 30 min / concentration at 1 h / concentration at 2 h / concentration at 6 h: C57BL/6, mouse; for Kp / half-life / AUC(0-t): iv; for Kp: mean AUC0–6 h ratio, read-out: Kp (brain-serum ratio, AUCbrain/AUCserum); for half-life: read-out: t1/2 (elimination half-life) (converted); for AUC(0-t): read-out: AUC0–6 h; for concentration at 5 min / concentration at 10 min / concentration at 30 min / concentration at 1 h / concentration at 2 h / concentration at 6 h: intravenous
Procedure: The mice were intravenously injected with 15 mg/kg TJ-5 at the time of reperfusion 1 h after MCAO or Sham. The mice were then anesthetized at 5 min, 10 min, 30 min, 1 h, and 2 h, or 6 h post-dosing. Blood was collected to prepare serum samples, and the ipsilateral ischemic hemisphere (IL brain), contralateral non-ischemic hemisphere (CL brain), heart, and liver samples were obtained after transcardial perfusion with 0.9% saline. Liquid chromatography-mass spectrometry (LC-MS) was performed to determine the concentration of TJ-5 in the samples. The time-concentration curve, area under the curve (AUC), and pharmacokinetic (PK) parameters of TJ-5 were analyzed using the PKslover 2.0 PK software ([Zhang et al., 2010]). BBB permeability was evaluated using the brain-to-serum partition coefficient (Kp), which was calculated as AUCbrain/AUCserum.

O=C(CCN1CCN(Cc2ccccc2)CC1)Nc1nc(-c2ccccc2)cs1 [TJ-5]
neurotoxicity ([1]; SH-SY5Y cells): no neurotoxicity
viability of SH-SY5Y cells ([1]; concentrations below 20 μM, 24 h, CCK-8): did not affect the viability
iNOS (with TNF-α, IL-6, IL-1β) mRNA expression levels in the brain ([2]; RT-qPCR): downregulated
expression of TNF-α, IL-1β, and IL-6 in the brain (mRNA and protein) ([2]; RT-qPCR and ELISA): reduced
viability of BV-2 cells [3]: did not affect the viability
levels of TNF-α and IL-6 in supernatants ([4]; LPS-stimulated BV-2 cells, pretreatment 2 h, LPS 24 h, ELISA): markedly reduced
activation (morphology) of LPS-stimulated BV-2 cells ([4]; pretreatment 2 h before LPS 1 μg/ml, 24 h): inhibited
levels of TNF-α and IL-6 in supernatants [5]: markedly reduced
concentration in CL brain ([6]; 15 mg/kg i.v. at reperfusion 1 h after MCAO, 5 min): 5877.53 ± 989.32 ng/g
concentration in CL brain ([6]; 15 mg/kg i.v. at reperfusion 1 h after MCAO, 10 min): 5364.30 ± 749.83 ng/g
concentration in CL brain ([6]; 15 mg/kg i.v. at reperfusion 1 h after MCAO, 30 min): 2480.87 ± 985.41 ng/g
concentration in CL brain ([6]; 15 mg/kg i.v. at reperfusion 1 h after MCAO, 1 h): 1662.40 ± 117.03 ng/g
concentration in CL brain ([6]; 15 mg/kg i.v. at reperfusion 1 h after MCAO, 2 h): 347.65 ± 55.25 ng/g
concentration in CL brain ([6]; 15 mg/kg i.v. at reperfusion 1 h after MCAO, 6 h): 10.43 ± 5.69 ng/g
BBB permeability ([6]; 15 mg/kg i.v., brain vs serum concentrations): good BBB permeability
Kp ([6]; CL brain (contralateral non-ischemic hemisphere) / serum, 15 mg/kg i.v., CL brain): 5.21
Kp ([6]; IL brain (ipsilateral ischemic hemisphere) / serum, 15 mg/kg i.v., IL brain): 5.58
Kp ([6]; brain (Sham) / serum, 15 mg/kg i.v., Sham brain): 4.98
half-life ([6]; contralateral non-ischemic hemisphere (CL brain), 15 mg/kg i.v., CL brain): 24.6 min
AUC(0-t) ([6]; contralateral non-ischemic hemisphere (CL brain), 15 mg/kg i.v., CL brain, tissue density assumed 1 g/ml): 4790 ± 353 ng·h/mL
concentration at 5 min ([6]; 15 mg/kg i.v., Sham brain, 5 min, read-out: concentration in Sham brain): 6230 ± 436 ng/g
concentration at 10 min ([6]; 15 mg/kg i.v., Sham brain, 10 min, read-out: concentration in Sham brain): 4900 ± 53.9 ng/g
concentration at 30 min ([6]; 15 mg/kg i.v., Sham brain, 30 min, read-out: concentration in Sham brain): 2730 ± 256 ng/g
concentration at 1 h ([6]; 15 mg/kg i.v., Sham brain, 1 h, read-out: concentration in Sham brain): 1580 ± 469 ng/g
concentration at 2 h ([6]; 15 mg/kg i.v., Sham brain, 2 h, read-out: concentration in Sham brain): 268 ± 6.25 ng/g
concentration at 6 h ([6]; 15 mg/kg i.v., Sham brain, 6 h, read-out: concentration in Sham brain): 18.7 ± 11 ng/g
concentration at 5 min ([6]; 15 mg/kg i.v., heart, 5 min, read-out: concentration in heart): 5910 ± 825 ng/g
concentration at 10 min ([6]; 15 mg/kg i.v., heart, 10 min, read-out: concentration in heart): 4590 ± 352 ng/g
concentration at 30 min ([6]; 15 mg/kg i.v., heart, 30 min, read-out: concentration in heart): 4730 ± 2060 ng/g
concentration at 1 h ([6]; 15 mg/kg i.v., heart, 1 h, read-out: concentration in heart): 1660 ± 335 ng/g
concentration at 2 h ([6]; 15 mg/kg i.v., heart, 2 h, read-out: concentration in heart): 684 ± 199 ng/g
concentration at 6 h ([6]; 15 mg/kg i.v., heart, 6 h, read-out: concentration in heart): 51.6 ± 11.9 ng/g
concentration at 5 min ([6]; 15 mg/kg i.v., liver, 5 min, read-out: concentration in liver): 7160 ± 594 ng/g
concentration at 10 min ([6]; 15 mg/kg i.v., liver, 10 min, read-out: concentration in liver): 5890 ± 528 ng/g
concentration at 30 min ([6]; 15 mg/kg i.v., liver, 30 min, read-out: concentration in liver): 4710 ± 1130 ng/g
concentration at 1 h ([6]; 15 mg/kg i.v., liver, 1 h, read-out: concentration in liver): 2960 ± 1030 ng/g
concentration at 2 h ([6]; 15 mg/kg i.v., liver, 2 h, read-out: concentration in liver): 750 ± 249 ng/g
concentration at 6 h ([6]; 15 mg/kg i.v., liver, 6 h, read-out: concentration in liver): 170 ± 36.1 ng/g
concentration at 5 min ([6]; 15 mg/kg i.v., serum, 5 min, read-out: concentration in serum): 1190 ± 209 ng/mL
concentration at 10 min ([6]; 15 mg/kg i.v., serum, 10 min, read-out: concentration in serum): 980 ± 203 ng/mL
concentration at 30 min ([6]; 15 mg/kg i.v., serum, 30 min, read-out: concentration in serum): 472 ± 151 ng/mL
concentration at 1 h ([6]; 15 mg/kg i.v., serum, 1 h, read-out: concentration in serum): 285 ± 29.1 ng/mL
concentration at 2 h ([6]; 15 mg/kg i.v., serum, 2 h, read-out: concentration in serum): 79.6 ± 26.9 ng/mL
concentration at 6 h ([6]; 15 mg/kg i.v., serum, 6 h, read-out: concentration in serum): 2.08 ± 1.12 ng/mL
concentration at 5 min ([6]; ipsilateral ischemic hemisphere (IL brain), 15 mg/kg i.v. at reperfusion 1 h after MCAO, ipsilateral ischemic hemisphere, 5 min, read-out: concentration in IL brain): 6650 ± 591 ng/g
concentration at 10 min ([6]; ipsilateral ischemic hemisphere (IL brain), 15 mg/kg i.v. at reperfusion 1 h after MCAO, ipsilateral ischemic hemisphere, 10 min, read-out: concentration in IL brain): 5799 ± 29.8 ng/g
concentration at 30 min ([6]; ipsilateral ischemic hemisphere (IL brain), 15 mg/kg i.v. at reperfusion 1 h after MCAO, ipsilateral ischemic hemisphere, 30 min, read-out: concentration in IL brain): 2890 ± 611 ng/g
concentration at 1 h ([6]; ipsilateral ischemic hemisphere (IL brain), 15 mg/kg i.v. at reperfusion 1 h after MCAO, ipsilateral ischemic hemisphere, 1 h, read-out: concentration in IL brain): 1750 ± 164 ng/g
concentration at 2 h ([6]; ipsilateral ischemic hemisphere (IL brain), 15 mg/kg i.v. at reperfusion 1 h after MCAO, ipsilateral ischemic hemisphere, 2 h, read-out: concentration in IL brain): 327 ± 57.2 ng/g
concentration at 6 h ([6]; ipsilateral ischemic hemisphere (IL brain), 15 mg/kg i.v. at reperfusion 1 h after MCAO, ipsilateral ischemic hemisphere, 6 h, read-out: concentration in IL brain): 11.7 ± 6.43 ng/g
half-life ([6]; ipsilateral ischemic hemisphere (IL brain), 15 mg/kg i.v., IL brain): 24.6 min
AUC(0-t) ([6]; ipsilateral ischemic hemisphere (IL brain), 15 mg/kg i.v., IL brain, tissue density assumed 1 g/ml): 5140 ± 239 ng·h/mL
half-life ([6]; 15 mg/kg i.v., Sham brain): 39 min
AUC(0-t) ([6]; 15 mg/kg i.v., Sham brain, tissue density assumed 1 g/ml): 4580 ± 276 ng·h/mL
half-life ([6]; 15 mg/kg i.v., heart): 40.2 min
AUC(0-t) ([6]; 15 mg/kg i.v., heart, tissue density assumed 1 g/ml): 6480 ± 769 ng·h/mL
half-life ([6]; 15 mg/kg i.v., liver): 42 min
AUC(0-t) ([6]; 15 mg/kg i.v., liver, tissue density assumed 1 g/ml): 8240 ± 852 ng·h/mL
AUC(0-t) ([6]; 15 mg/kg i.v., serum): 919 ± 82.2 ng·h/mL
half-life ([6]; 15 mg/kg i.v., serum): 22.8 min
time effective concentration is maintained ([6]; single intravenous injection of 15 mg/kg): about 6 h

From publication PMC9797592, “TJ-M2010-5, a novel CNS drug candidate, attenuates acute cerebral ischemia-reperfusion injury through the MyD88/NF-κB and ERK pathway” (Frontiers in Pharmacology, 2022)
